This note sets out measurements from patent US4428957A, “6-Isothiocyano-5-methoxy-2-tert.-butylbenzthiazole and a method of controlling ruminant liver flukes therewith” (Ciba-Geigy Corporation, priority 1978, dated 1984).

Read-outs that look alike come from different tables or passages of the source.

In data set [1] the test system is Fasciola hepatica. In words: Test on sheep infested with Fasciola hepatica. The class given is in vivo, Fasciola hepatica (host: sheep). The settings on record: for minimal effective dose: Fasciola hepatica. An excerpt:
The active substance is introduced in the form of a suspension, by means of a stomach probe or by injection, into the rumen of sheep which have been artificially infested with Fasciola hepatica. Three animals are used per test and per dose, each animal being treated with just one single dose. An initial evaluation is made by comparing the numbers of worm eggs excreted in the droppings of the sheep before and after the treatment. The sheep are killed and dissected three to four weeks after the treatment. The second evaluation is on the basis of a count of the liver flukes which have remained behind in the hepatic ducts after the treatment. Simultaneously and similarly infested but untreated sheep are used as a control or comparison. The difference in the numbers of liver flukes in the two groups is a measure of the degree of effectiveness of the active substance tested.
(§1) The active substances are introduced in the form of a suspension, by means of a stomach probe or by injection, into the rumen of the experimental animals. Three to five sheep are used per test and per dose, each animal being treated with just one single dose. The sheep are kept under observation during 14 days after the treatment, and they are weighed at regular intervals. Any clinical symptoms and cases of death occurring are recorded during this period. Similar sheep (with regard to breed, age and weight) which have not been treated with the respective active substance are kept as control animals together with the treated experimental animals. The same parameters are recorded in the case of the control sheep as in the case of the treated sheep. The minimum effective dose (MED) of 25 mg/kg (see Table) in the case of the compound of formula I is effective in sheep not only against Fasciola hepatica but also against nematodes such as Haemonchus concortus, Trichostrongylus colubriformis and Ostertagia circumcincta, and against cestodes such as Moniezia benedeni.

Data set [2] can be described thus: Compatibility in the case of the sheep. The settings on record: in vivo; for MTD at 336 h: single dose into the rumen, 14 days observation, read-out: MTD (maximum tolerated dose). Here is the method:
as §1

The subject of data set [3] is Haemonchus contortus. Nature of the data set: Test on sheep infected with nematodes: Haemonchus contortus. Conditions: read-out: minimum effective dose (MED), effective also against Haemonchus concortus. It counts as in vivo, Haemonchus contortus (host: sheep). From the text:
(§2) The active substance is introduced in the form of a suspension by means of a stomach probe, or by injection, into the rumen of sheep which have been artificially infested with nematodes such as Haemonchus controtus and Trichostrongylus colubriformis. Three animals are used per test and per dose, each sheep being treated with just one single dose. An initial evaluation is made by comparing the numbers of worm eggs excreted in the dropping of the sheep before and after the treatment. Seven to ten days after the treatment, the sheep are killed and dissected. A second evaluation is then made by carrying out a count of the worm which have remained behind in the intestine after the treatment. Sheep which have been simultaneously and similarly infested but not treated with the active substance are used as a control or comparison.

Data set [4] relates to Trichostrongylus colubriformis. Nature of the data set: Test on sheep infected with nematodes: Trichostrongylus colubriformis. The settings on record: read-out: minimum effective dose (MED), effective also against Trichostrongylus colubriformis. It counts as in vivo, Trichostrongylus colubriformis (host: sheep).
Source text: as §2

Data set [5] has as its system Ostertagia circumcincta. In words: Test on sheep infected with nematodes: Ostertagia circumcincta. It counts as in vivo, Ostertagia circumcincta (host: sheep). Conditions: Teladorsagia circumcincta, read-out: minimum effective dose (MED), effective also against Ostertagia circumcincta.
Source text: as §2

The subject of data set [6] is Moniezia benedeni. Nature of the data set: Test on sheep infested with cestodes: Moniezia benedeni. It counts as in vivo, Moniezia benedeni (host: sheep). Conditions: read-out: minimum effective dose (MED), effective also against Moniezia benedeni. An excerpt: The active substance is introduced in the form of a suspension, by means of a stomach probe or by injection, into the rumen of sheep which are infested with cestodes such as Moniezia benedeni. Three animals are used per test and per dose, each sheep being treated with just one single dose. The sheep are killed and dissected seven to ten days after the treatment. The evaluation is made on the basis of a count of the worms which have remained behind in the intestine after the treatment. Sheep which have been simultaneously and similarly infested but not treated with the active substance are used as a control or comparison.

Data set [7] has as its system Litomosoides carinii. Nature of the data set: filariasis: Litomosoides carinii in Mongolian jirds and multimammate rats. The class given is in vivo.
Data set [8] deals with Dipetalonea viteae. In words: filariasis: Dipetalonea viteae in Mongolian jirds and multimammate rats. The class given is in vivo.
In data set [9] the test system is Brugia pahangi. In words: filariasis: Brugia pahangi in multimammate rats. The class given is in vivo, Brugia pahangi (host: multimammate rats).
In data set [10] the test system is Brugia malayi. In words: filariasis: Brugia malayi in multimammate rats. The class given is in vivo, Brugia malayi (host: multimammate rats).
Data set [11] deals with Schistosoma mansoni. Nature of the data set: schistosomiasis: Schistosoma mansoni in mice and Syrian hamsters. The class given is in vivo, Schistosoma mansoni (host: mice and Syrian hamsters).
Data set [12] concerns Schistosoma japonicum. Nature of the data set: schistosomiasis: Schistosoma japonicum in dogs. The class given is in vivo, Schistosoma japonicum (host: dogs).
In data set [13] the test system is Nipprostrongylus species. In words: gastro-intestinal helminths: tests with various Nipprostrongylus species. It counts as in vivo. Conditions: compound and its non-toxic salts.
The test system of data set [14] is parasitic helminths, especially Nematodes and Trematodes. Nature of the data set: anthelmintic activity against parasitic helminths, various test models. The class given is in vivo.
Where [15] appears, read: read-out: MED (minimum effective dose).

`CC(C)(C)c1nc2ccc(N=C=S)cc2s1` [No. 2, reference compound]: in [1] (setting [15]), the minimal effective dose came out at 100 mg/kg. Besides, the MTD at 336 h in data set [2] is 200 mg/kg.
On the same counts, the results for `COc1cc2nc(C(C)C)sc2cc1N=C=S` [No. 3, reference compound] are more than 100 mg/kg and 200 mg/kg.
On the same counts, the results for `CC(C)c1nc2ccc(N=C=S)cc2s1` [No. 4, reference compound] are more than 200 mg/kg and 200 mg/kg.
Take `COc1cc2nc(C(C)(C)C)sc2cc1N=C=S` [compound of the formula I, 6-isothiocyano-5-methoxy-2-tert.-butyl-benzothiazole]: the minimal effective dose is 25 mg/kg in [1] (setting [15]); 25 mg/kg in data set [1] (sheep, read-out: minimum effective dose (MED)); 25 mg/kg in data set [3]; 25 mg/kg in data set [4]; 25 mg/kg in data set [5]; 25 mg/kg in [6]. In addition, in data set [1] (sheep), the “action against liver flukes in sheep” value was “excellent action against liver flukes in sheep”. In addition, in data set [2] (liver flukes, read-out: therapeutic index (maximum tolerated dose/minimum effective dose)), the selectivity ratio was approximately 13. In addition, in [2], the MTD at 336 h worked out at 320 mg/kg. For the same molecule, the “potency against filariasis, micro- and macrofilariae” value in [7], in data set [8], in [9] and in data set [10] was “pronounced potency” throughout. In addition, the antischistosomal effects entry in data set [11] and in [12] was “pronounced antischistosomal effects” in each case. In addition, the “properties against gastro-intestinal helminths” value in data set [13] is “surprising properties against gastro-intestinal helminths”. For the same molecule, the anthelmintic properties result in [14] (general) is given as “generally good anthelmintic properties”. Further, the “activity against filariasis, schistosomiasis and gastro-intestinal helminths” value in data set [14] (various test models) is “excellent activity”. Moreover, the “anthelminthic activities against a broad variety of parasitic helminths” value in data set [14] (warm-blooded organisms, compound and non-toxic salts) was “extremely potent anthelminthic activities”.

The term MTD denotes the highest dose tested that stayed within the study's limit of toxicity.
